Test results as given in US9351818B2, “Process for the synchronization of ovulation for timed breeding without heat detection” (priority 2003, dated 2016).

Key:
mature postpartum sows = test: Intravulvar deslorelin at estrus detection with AI in mature postpartum sows (Example 2); type: in vivo, swine; conditions: 50 μg deslorelin acetate intravulvar at first estrus detection, then AI again if in estrus the next day
Procedure: Sows were assigned randomly in blocks of two to either control or to be injected intravulvar with 50 mcg of deslorelin in SAIB at the time of estrus detection for sows first detected in estrus in the a.m. and 12 hours later for those first detected in estrus in the p.m. Treated animals were bred AI upon detected estrus and again 24 hours later if still in estrus. Controls received a saline injection on first detected estrus behavior estrus detection and were bred according to the farm's normal procedures.

postpartum sows = test: Single timed deslorelin injection 96 hours post-weaning with single timed insemination, no estrus detection (Example 3); type: in vivo, swine; conditions: 50 mcg in SAIB at 96 hours post-weaning; single insemination 28+/-2 hours later
Procedure: Approximately 170 postpartum sows were randomly divided into two equal groups comprised of controls and treated. Following weaning, the controls were detected for estrus and bred following the normal standard operating procedures for the farms on which they resided. The treated sows received a 50 mcg dose of deslorelin in SAIB at 96 hours post-weaning and were bred with a single insemination 28+/−2 hours later with no regard to estrus detection. The sows were examined for pregnancy by ultrasound at 21 days and slaughtered around 28 days post breeding. The entire reproductive tract was removed and corpora lutea and embryos were counted.

CCNC(=O)[C@@H]1CCCN1C(=O)[C@H](CCCN=C(N)N)NC(=O)[C@H](CC(C)C)NC(=O)[C@@H](Cc1c[nH]c2ccccc12)NC(=O)[C@H](Cc1ccc(O)cc1)NC(=O)[C@H](CO)NC(=O)[C@H](Cc1c[nH]c2ccccc12)NC(=O)[C@H](Cc1cnc[nH]1)NC(=O)[C@@H]1CCC(=O)N1 [Deslorelin, deslorelin]
Pregnancy Rate (mature postpartum sows): 91%
Embryo Survival (postpartum sows): 64%
